# Laboratory results from paper PMC4912218, “Targeted metabolomics of Gammarus pulex following controlled exposures to selected pharmaceuticals in water” (The Science of the Total Environment, 2016).
# Assays:
# [1] = Internal pharmaceutical residue concentration in exposed G. pulex (SPE, LC-MS/MS); conditions: C1 dose, 24 h
# Protocol: Quantification of pharmaceutical concentrations in G. pulex at the 24 h exposure interval was performed. Separate exposures were set up in triplicate in beakers containing 200 mL of exposure solution (AFW spiked with the respective C1 pharmaceutical dose) and 20 organisms. At 24 h, animals were immediately rinsed with ultra-pure water and then frozen at − 20 °C for 24 h. […] Prior to extraction, frozen G. pulex samples were lyophilised at − 50 °C under vacuum for 48 h and milled in an agate mortar to a fine powder. For each analysis, 20 mg of a lyophilised composite sample were transferred to 2 mL polypropylene tubes (Eppendorf®, Hamburg, Germany), for solid-liquid extraction (SLE). […]
# Briefly, 50 mg of lyophilised G. pulex were extracted in 5 mL of acetonitrile and pre-concentrated on Oasis HLB SPE cartridges (6 mL, 200 mg sorbent). […] Organic acids, nucleosides, nucleotides, sugars and AAs were measured using LC–HRMS. […]
# Here, pharmaceutical residue quantification in exposed G. pulex was performed by a 3-point matrix-matched calibration curve. […] L-ornithine hydrochloride, inosine, thymidine, taurine, 1.7-dimethylxanthine and (−)-riboflavin were quantified using either ^13C,^15N-proline or ^13C,^15N-tyrosine as the internal standard. The remaining 15 compounds were quantified using external calibration and the target compound itself was used as external standard. […]
# Gammarus pulex = assay: in vivo; conditions: G. pulex
# Protocol: (§1) From these toxicity profiles the NOAEL and the LOAEL were determined. Exposure experiments were performed in Pyrex® beakers, each containing 200 mL of AFW at 15 °C and ten adult animals (> 5 mg wet weight, ww). Live/dead animals were counted after 24 h by gently prodding and observing movement of appendages. The pharmaceutical concentrations tested were in the range of 0.01 to 250 mg L^− 1. […] Concentrations where 100, 50 and 0% of the animals died were repeated in duplicate or triplicate.
# in vivo = conditions: in vivo
# Protocol: as §1
# [2] = parameters: method as in Drugbank; conditions: 20 °C; ref Drugbank; cited from earlier work
smiles,measurement,setting,value
Oc1cc(Cl)ccc1Oc1ccc(Cl)cc1Cl [Triclosan],internal concentration in G. pulex (detection),[1],not quantifiable
same,LC10,Gammarus pulex; 24 h,0.20 µg/mL
same,LOAEL (C2),Gammarus pulex; 24 h acute toxicity profile,0.3 mg L^− 1
same,NOAEL (C1),Gammarus pulex; 24 h acute toxicity profile,0.1 mg L^− 1
same,LC50 at 24 h,in vivo,0.57 µg/mL
same,Water solubility,[2],12000 (20 ºC) mg L^-1
